For this experiment, the target named is Guanine nucleotide-binding protein G(o) subunit alpha (Homo sapiens, UniProt P09471). Put plainly: RGS16-Galphao interaction regulators, SAR follow-up, biochemical, multiplexed bead assay, additional SAR round (AID 2828).

Broadly, the EC50 is the concentration that produces a half-maximal response. Read a high EC50 as lower potency in that assay.

Guanine nucleotide-binding protein G(o) subunit alpha, sequence (P09471 whole entry): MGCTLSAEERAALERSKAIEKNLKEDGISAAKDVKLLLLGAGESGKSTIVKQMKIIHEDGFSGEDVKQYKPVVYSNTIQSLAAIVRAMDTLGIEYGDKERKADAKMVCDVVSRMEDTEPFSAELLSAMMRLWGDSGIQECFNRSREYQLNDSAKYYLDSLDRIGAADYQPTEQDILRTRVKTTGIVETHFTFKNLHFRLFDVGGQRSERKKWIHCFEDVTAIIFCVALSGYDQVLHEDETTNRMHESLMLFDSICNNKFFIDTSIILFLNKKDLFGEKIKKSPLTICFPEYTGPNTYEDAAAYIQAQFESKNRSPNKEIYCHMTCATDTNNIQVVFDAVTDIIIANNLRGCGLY

Regarding `O=C(c1sc2cc([N+](=O)[O-])ccc2c1Cl)N1CCNCC1`, the EC50 was above 30 µM. For `O=C(NCCCN1CCOCC1)c1sc2cc([N+](=O)[O-])ccc2c1Cl` [3-chloranyl-N-(3-morpholin-4-ylpropyl)-6-nitro-1-benzothiophene-2-carboxamide] the value was above 30 µM; for `O=C(NCCCn1ccnc1)c1sc2cc([N+](=O)[O-])ccc2c1Cl` [3-chloro-N-[3-(1-imidazolyl)propyl]-6-nitro-1-benzothiophene-2-carboxamide], above 30 µM; for `NC(=O)c1sc2cc([N+](=O)[O-])ccc2c1Cl` [KSC-1-100], above 30 µM. The compound `Cc1ccc2c(Cl)c(C(=O)NCCCN3CCOCC3)sc2c1` [KUC103874N] returned an EC50 above 30 µM.

The values are drawn from BindingDB's records for doi:10.7270/Q2XS5SVJ (Nmmlsc, 2010).
